Assays:
[1] = test system: MC3T3-E1 cells; test: LDH activity (cell viability) on coated titanium implants; type: cell-based, mouse
Description: To treat implant surfaces, 10 μl of each dilution treatment were left on the surfaces and were allowed to air-dry for 15 min in the sterile flow bench. For UV-irradiation, a UV lamp of 302 nm was used at an intensity of irradiation ca. 6 mW/cm^2 during several irradiation times.
To test the effect of the surface modification, 96-well plates were used. Ti disks were placed into the wells and treatments and UV-activation were performed over there. Cells grown onto untreated polystyrene tissue culture plastic (TCP) were added as a control for all the experiments. Cells were seeded at a density of 30,000 cells/cm^2 and they were maintained in α-MEM supplemented with 10% FCS and antibiotics. […] Cells were harvested after two days of culture using Trizol reagent (Roche Diagnostics, Mannheim, Germany), to analyze gene expression of several osteoblast differentiation markers and enzymes involved in vitamin D synthesis using real-time RT-PCR. […]
Lactate dehydrogenase (LDH) activity in the culture media was used as an index of cell death. LDH activity was determined spectrophotometrically after 30 min incubation at 25° C. of 50 μl of culture and 50 μl of the reaction mixture by measuring the oxidation of NADH at 490 nm in the presence of piruvate following the manufacturer's protocol (Cytotoxicity Detection Kit (LDH), Roche Diagnostics, Mannheim, Germany). […]

[2] = test system: MC3T3-E1 cells; test: Calcium content (mineralization, ICP-AES) on coated titanium implants; type: cell-based, mouse; conditions: Ti implants; 28 days; UV-treated compared to UV-untreated cells and control group
Description: To test the effect of the surface modification, 96-well plates were used. Ti disks were placed into the wells and treatments and UV-activation were performed over there. Cells grown onto untreated polystyrene tissue culture plastic (TCP) were added as a control for all the experiments. Cells were seeded at a density of 30,000 cells/cm^2 and they were maintained in α-MEM supplemented with 10% FCS and antibiotics. Culture media was collected after 48 hours, to test cytotoxicity and the production of the hydroxylated form of vitamin D, 25-D3. Cells were harvested after two days of culture using Trizol reagent (Roche Diagnostics, Mannheim, Germany), to analyze gene expression of several osteoblast differentiation markers and enzymes involved in vitamin D synthesis using real-time RT-PCR. […]
[…] Cell lysates were put into freeze/thaw cycles (liquid nitrogen and 37° C. water bath) to improve protein recovery. […] ALP activity was calculated by measuring the cleavage of p-Nitrophenyl Phosphate (pNPP) (Sigma, St. Louis, Mo., USA) in a soluble yellow end product which absorbs at 405 nm. […] At this point, absorbance was read at 405 nm.
To determine calcium content samples were analyzed by inductively coupled plasma atomic emission spectrometry (Optima 5300 DV, PerkinElmer, Massachussetts, USA). […]

Structure (SMILES): CC(C)CCC[C@@H](C)[C@H]1CC[C@H]2C3=CC=C4C[C@@H](O)CC[C@]4(C)[C@H]3CC[C@]12C [7-DHC, 7-dehydrocholesterol]
- Cytotoxic effect ([1]; Ti implants treated and UV-irradiated): No cytotoxic effect
- Cell viability (LDH activity) ([1]; Ti implants, 0.2 nmols, 24 h, UV-activated 5 to 10 minutes, compared to negative control (TCP)): protective effects
- Calcium content [2]: significant increase

Source: patent publication US8821568B2, “Implant modified with non-hydroxylated vitamin D precursors” (Numat Biomedical S.L., priority 2008, dated 2014)
